Laboratory results taken from patent US9757379B2, “Inhibition of HIF-2α heterodimerization with HIF1β (ARNT)” (The Board of Regents of the University of Texas System, priority 2012, dated 2017).
Like-named read-outs stand apart in the source and are kept apart here.

Key:
HIF-2α PAS-B = HIF-2α PAS-B (Homo sapiens, UniProt Q99814); experiment: Isothermal titration calorimetry (ITC) on HIF-2α PAS-B;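 note: Wild-type protein (200 µM) titrated into 5-10 µM compound, heats of dilution from a compound-free titration subtracted, isotherms fit to a single-site model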
Description: ITC, as described more fully below, introduces a wild-type HIF-2α PAS-B solution into a to-be-assayed compound solution using, for example, a VP-ITC instrument (MicroCal). After subtracting heats of dilution evolved from the titrating protein, e.g., wild-type HIF-2α PAS-B, into a compound-free buffer, data were fit to a single-site binding model with, for example, MicroCal Origin® software to determine complex affinities.
The following is a general procedure describing the ITC assay Thermodynamic parameters of small molecule binding are determined using a MicroCal VP-ITC calorimeter. Solutions of HIF-2α PAS-B are extensively dialyzed against buffer (50 mM Tris (pH 7.5), 20 mM NaCl and 5 mM beta-mercaptoethanol), which is subsequently used to prepare a matched compound solution by dilution from a 50 mM compound stock in 100% DMSO. […] Each isotherm is recorded by injecting 200 μM protein (syringe) into 5-10 μM solutions of compound (cell), accounting for dilution heats by subtracting data from a control titration of 200 μM protein into a matched buffer-DMSO solution. Thermograms are fit to a single site binding model to extract equilibrium binding parameters.

[1] = target: HIF-2α PAS-B*/ARNT PAS-B* heterodimer (Homo sapiens, UniProt Q99814, R247E); experiment: AlphaScreen, HIF-2α PAS-B*/ARNT PAS-B* heterodimerization;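 note: GST-tagged HIF-2α PAS-B* and FLAG-tagged ARNT PAS-B* with glutathione donor and anti-FLAG acceptor beads, luminescence after 680 nm excitation, loss of signal indicating disrupted heterodimer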
Description: (FIG. 8a) As shown in the cartoon schematic, interactions between GST-tagged HIF-2α (green) and FLAG-tagged ARNT (blue) PAS-B* domains recruit both donor beads (D), coated with glutathione, and acceptor beads (A), coated with anti-FLAG antibodies, to one another. Upon illumination with red (680 nm) light, donor beads will generate short-lived singlet oxygen (^1O2). Nearby (<200 nm) acceptor beads can react with ^1O2 to emit light at shorter wavelengths (top). Compounds that disrupt the complex correspondingly eliminate this signal (bottom). Compounds that non-specifically interfere with the AlphaScreen assay can be identified with a counterscreen in which the ARNT PAS-B* domain was simultaneously tagged with both the GST and FLAG tags. (FIG. 8b) The AlphaScreen signal (relative units; RU) reflecting protein-protein interactions between 25 (open triangles), 50 (open circles) or 100 (closed circles) nM HIF-2α PAS-B* increases with increasing concentrations of ARNT PAS-B*. At the highest ARNT PAS-B* concentrations, a decrease in signal reflects the hook effect. At these concentrations, protein binding to the acceptor beads has become saturated and free ARNT PAS-B* competes with the coated acceptor beads for the donor beads bound to HIF-2α PAS-B*. […] Assays were performed in triplicate and the error bars represent±SD.
Inhibition of heterodimerization of HIF-2α to HIF1β (ARNT) may be determined in an Amplified Luminescent Proximity Homogeneous Assay (AlphaScreen).
The AlphaScreen assay can be done according to the following procedures: • 1. Prepare cold binding buffer solution: 20 mM Tris-Cl (pH=7.5), 100 mM NaCl, 1 mM DTT, 0.02% Tween-20 (final concentration) and place on ice to keep temperature approximately 4° C. • 2. Prepare Protein Mix: To a 50 mL conical tube add 23 mL of cold buffer and 0.04 mL of both GST-HIF2α PASB* (100 μM) and ARNT-PASB*-Flag (100 μM). • 3. Distribute to 96 well plate: Add 60 μL of protein mix to each wells. • 4. Adding Compound: Dissolve compounds in DMSO to obtain a final concentration of 10 mM. Then create the appropriate dilutions for your particular compound in glass vials. Once all the dilutions are ready place 1 μL of compound in each well. • 5. Prepare Bead mix: In the dark room using green light only create a tube with 3.84 mL of cold buffer and 3 μL of GST Donor beads and Flag acceptor beads. • 6. Distribute Bead mix: Invert the tube a couple times before distributing 40 μL of mix to each well. • 7. Incubation: After adding beads wrap the plate in tin foil twice and remove the covered plate from dark room. Incubate the plate at room temperature while rocking gently for 4 hours. • 8. Read: After 4 hours place the uncovered plate in the plate reader. Make sure the room is relatively tree of white light when placing the plate in the machine. It is ok to have the green light on if needed. • 9. […] Flag acceptor beads should be aliquoted into small opaque tubes (20-50 μl per tube) upon arrival from the manufacturer. Place both sets of beads in 4° C. storage when not in use. • 11. Avoid expose beads to white light. • 12. Pipette beads up and down several times before adding to a tube of cold buffer solution. • 13. Amount of Beads used for Bead mix may vary from batch to batch.

GST-ARNT-PAS-B*-FLAG = GST-ARNT-PAS-B*-FLAG (Homo sapiens, UniProt P27540, E362R); experiment: AlphaScreen control reaction with doubly tagged protein; type: biochemical; conditions: single doubly tagged protein
Description: Upon illumination with red (680 nm) light, donor beads will generate short-lived singlet oxygen (^1O2). Nearby (<200 nm) acceptor beads can react with ^1O2 to emit light at shorter wavelengths (top). Compounds that disrupt the complex correspondingly eliminate this signal (bottom). Compounds that non-specifically interfere with the AlphaScreen assay can be identified with a counterscreen in which the ARNT PAS-B* domain was simultaneously tagged with both the GST and FLAG tags. […] At these concentrations, protein binding to the acceptor beads has become saturated and free ARNT PAS-B* competes with the coated acceptor beads for the donor beads bound to HIF-2α PAS-B*. […] Assays were performed in triplicate and the error bars represent±SD.

VEGF = VEGF protein secretion by ELISA, 786-O cells; type: cell-based, human; conditions: about 18 hours, 0.00655-20 μM
Protocol: VEGF protein secretion was measured by ELISA following incubation of cultured 786-O cells for about eighteen (18) hours with Compund (1) (FIG. 19a) or with Compound (47) (FIG. 19b).

HIF-2α PAS-B*/ARNT PAS-B* heterodimer, sequence (Q99814 240-350 R247E, one chain of several): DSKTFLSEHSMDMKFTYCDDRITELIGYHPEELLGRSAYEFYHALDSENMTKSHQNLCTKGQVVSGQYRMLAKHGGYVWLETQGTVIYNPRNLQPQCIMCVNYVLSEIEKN
HIF-2α PAS-B, sequence (Q99814 240-350): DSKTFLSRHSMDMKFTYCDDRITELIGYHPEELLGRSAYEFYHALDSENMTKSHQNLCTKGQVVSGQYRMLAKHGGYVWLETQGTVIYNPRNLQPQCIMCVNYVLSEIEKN
GST-ARNT-PAS-B*-FLAG, sequence (P27540 355-470 E362R): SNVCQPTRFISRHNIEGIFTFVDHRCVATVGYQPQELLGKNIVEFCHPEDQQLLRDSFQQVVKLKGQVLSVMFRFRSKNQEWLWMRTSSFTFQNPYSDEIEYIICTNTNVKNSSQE

| Kd (HIF-2α PAS-B) [nM] | IC50 [1] [nM] | Structure (SMILES) | further results |
| --- | --- | --- | --- |
| 4300 |  | O=[N+]([O-])c1ccccc1Nc1cc(F)cc(Cl)c1 (racemic) [Compound 33] |  |
| 760 | 700 | Fc1ccccc1[C@@H]1C[C@H](c2cccc(Br)c2)Nc2nnnn21 (racemic) [Compound 50, (+/−)-(cis)-5-(3-bromophenyl)-7-(2-fluorophenyl)-4,5,6,7-tetrahydrotetrazolo[1,5-a]pyrimidine] |  |
| 435 | 300 | Clc1ccccc1[C@@H]1C[C@H](c2cccc(Br)c2)Nc2nnnn21 (racemic) [Compound 51, (+/−)-(cis)-5-(3-bromophenyl)-7-(2-chlorophenyl)-4,5,6,7-tetrahydrotetrazolo[1,5-a]pyrimidine] |  |
| 565 | 200 | Brc1cccc([C@H]2C[C@@H](c3ccccc3Br)n3nnnc3N2)c1 (racemic) [Compound 54, (+/−)-(cis)-7-(2-bromophenyl)-5-(3-bromophenyl)-4,5,6,7-tetrahydrotetrazolo[1,5-a]pyrimidine] |  |
| 862 | 600 | Brc1cccc([C@H]2C[C@@H](c3ccccc3I)n3nnnc3N2)c1 (racemic) [Compound 55, (+/−)-(cis)-5-(3-bromophenyl)-7-(2-iodophenyl)-4,5,6,7-tetrahydrotetrazolo[1,5-a]pyrimidine] |  |
| 106 | 200 | Clc1cccc([C@@H]2C[C@H](c3cccc(Br)c3)Nc3nnnn32)c1 (racemic) [Compound 56, (+/−)-(cis)-5-(3-bromophenyl)-7-(3-chlorophenyl)-4,5,6,7-tetrahydrotetrazolo[1,5-a]pyrimidine] |  |
| 42 | 200 | Fc1c(Cl)cccc1[C@@H]1C[C@H](c2cccc(Br)c2)Nc2nnnn21 (racemic) [Compound 59, (+/−)-(cis)-5-(3-bromophenyl)-7-(3-chloro-2-fluorophenyl)-4,5,6,7-tetrahydrotetrazolo[1,5-a]pyrimidine] |  |
| 32 | 200 | Fc1ccc(Cl)c(F)c1[C@@H]1C[C@H](c2cccc(Br)c2)Nc2nnnn21 (racemic) [Compound 61, (+/−)-(cis)-5-(3-bromophenyl)-7-(3-chloro-2,6-difluorophenyl)-4,5,6,7-tetrahydrotetrazolo[1,5-a]pyrimidine] |  |
| 930 |  | CC(C)C[C@@H]1C[C@H](c2cccc(Br)c2)Nc2nnnn21 (racemic) [Compound 64, (+/−)-(cis)-5-(3-bromophenyl)-7-isobutyl-4,5,6,7-tetrahydrotetrazolo[1,5-a]pyrimidine] |  |
| 520 | > 30000 | O=[N+]([O-])c1c(NCc2ccc(F)cc2C(F)(F)F)ccc2nonc12 [Compound 4, N-(4-fluoro-2-(trifluoromethyl)benzyl)-4-nitrobenzo[c][1,2,5]oxadiazol-5-amine] |  |
| 220 | 150 | O=[N+]([O-])c1c(Nc2ccc(Br)c(F)c2)ccc2nonc12 [Compound 7] |  |
| 260 | 90 | O=[N+]([O-])c1c(Nc2ccc(Cl)c(C(F)(F)F)c2)ccc2nonc12 [Compound 9, N-(4-chloro-3-(trifluoromethyl)phenyl)-4-nitrobenzo[c][1,2,5]oxadiazol-5-amine] |  |
| 2100 | > 1000 | O=[N+]([O-])c1c(Nc2cc(F)cc(F)c2)ccc2nonc12 [Compound 11, N-(3,5-difluorophenyl)-4-nitrobenzo[c][1,2,5]oxadiazol-5-amine] |  |
|  | > 10000 | Cc1ccc(CNc2ccc3nonc3c2[N+](=O)[O-])cc1 [Compound 18] |  |
|  | > 5000 | O=[N+]([O-])c1c(NCc2ccc(Cl)cc2)ccc2nonc12 [Compound 19] |  |
|  |  | O=[N+]([O-])c1c(NCc2cc(F)cc(Cl)c2)ccc2nonc12 [Compound 21] | Kd (HIF-2α PAS-B; read-out: ITC Kd): 2000 nM |

| Kd (HIF-2α PAS-B) [nM] | IC50 [1] [nM] | Structure (SMILES) | further results |
| --- | --- | --- | --- |
|  | > 30000 | O=[N+]([O-])c1c(NCc2cc(F)ccc2C(F)(F)F)ccc2nonc12 [Compound 22] |  |
|  | > 10000 | COc1cccc(Nc2ccc3nonc3c2[N+](=O)[O-])c1 [Compound 23] |  |
| 4300 |  | O=[N+]([O-])c1cccc(Nc2ccc3nonc3c2[N+](=O)[O-])c1 [Compound 27] |  |
| 2100 |  | O=[N+]([O-])c1c(Nc2cccc(F)c2)ccc2nonc12 [Compound 28] |  |
|  | > 10000 | O=[N+]([O-])c1c(Nc2cc(F)cc(Cl)c2)ccc2nn[nH]c12 [Compound 34] |  |
| ~3000 |  | Fc1cc(Cl)cc(Nc2ccc3nonc3c2)c1 [Compound 38] |  |
| ~6000 | > 30000 | Nc1c(Nc2cc(F)cc(Cl)c2)ccc2nonc12 [Compound 39] |  |
|  |  | CNS(=O)(=O)c1c(Nc2cc(F)cc(Cl)c2)ccc2nonc12 [Compound 43] | Kd (HIF-2α PAS-B; read-out: ITC Kd): 5000 nM |
|  |  | CN(C)S(=O)(=O)c1c(Nc2cc(F)cc(Cl)c2)ccc2nonc12 [Compound 44] | Kd (HIF-2α PAS-B; read-out: ITC Kd): 5000 nM |
| 268 | 350 | Fc1cc(Br)cc([C@@H]2C[C@H](c3ccccc3)n3nnnc3N2)c1 [Compound 49, (5S,7R)-5-(3-bromo-5-fluorophenyl)-7-phenyl-4,5,6,7-tetrahydrotetrazolo[1,5-a]pyrimidine] |  |
| 337 | 300 | Clc1ccccc1[C@H]1C[C@@H](c2cccc(Br)c2)Nc2nnnn21 [Compound 52, (5S,7R)-5-(3-bromophenyl)-7-(2-chlorophenyl)-4,5,6,7-tetrahydrotetrazolo[1,5-a]pyrimidine] |  |
| 133 | 150 | Clc1cccc([C@H]2C[C@@H](c3cccc(Br)c3)Nc3nnnn32)c1 [Compound 57] |  |
| 89 | 100 | Brc1cccc([C@@H]2C[C@H](c3cccc(Br)c3)n3nnnc3N2)c1 [Compound 58, (5S,7R)-5,7-bis(3-bromophenyl)-4,5,6,7-tetrahydrotetrazolo[1,5-a]pyrimidine] |  |
| 192 | 400 | Clc1ccc(Br)cc1[C@H]1C[C@@H](c2cccc(Br)c2)Nc2nnnn21 [Compound 60, (5S,7R)-7-(5-bromo-2-chlorophenyl)-5-(3-bromophenyl)-4,5,6,7-tetrahydrotetrazolo[1,5-a]pyrimidine] |  |
| 44 | < 100 | Fc1ccc(Br)c(F)c1[C@H]1C[C@@H](c2cccc(Br)c2)Nc2nnnn21 [Compound 62, (5S,7R)-7-(3-bromo-2,6-difluorophenyl)-5-(3-bromophenyl)-4,5,6,7-tetrahydrotetrazolo[1,5-a]pyrimidine] |  |
| 31 | < 10 | Fc1c(Br)ccc(Br)c1[C@H]1C[C@@H](c2cccc(Br)c2)Nc2nnnn21 [Compound 63, (5S,7R)-5-(3-bromophenyl)-7-(3,6-dibromo-2-fluorophenyl)-4,5,6,7-tetrahydrotetrazolo[1,5-a]pyrimidine] |  |

| Structure (SMILES) | Kd (HIF-2α PAS-B) [nM] | IC50 [1] [nM] | further results |
| --- | --- | --- | --- |
| O=[N+]([O-])c1c(NCc2ccc(F)cc2Cl)ccc2nonc12 [Compound 2, N-(2-chloro-4-fluorobenzyl)-4-nitrobenzo[c][1,2,5]oxadiazol-5-amine] |  | 330 | Kd (HIF-2α PAS-B; read-out: ITC Kd): 500 nM |
| O=[N+]([O-])c1c(NCc2cc(F)ccc2F)ccc2nonc12 [Compound 3, N-(2,5-difluorobenzyl)-4-nitrobenzo[c][1,2,5]oxadiazol-5-amine] | > 10000 | > 10000 |  |
| O=[N+]([O-])c1c(Nc2cccc(Cl)c2)ccc2nonc12 [Compound 5, N-(3-chlorophenyl)-4-nitrobenzo[c][1,2,5]oxadiazol-5-amine] |  | 180 | Kd (HIF-2α PAS-B; read-out: ITC Kd): 160 nM |
| O=[N+]([O-])c1c(Nc2cccc(C(F)(F)F)c2)ccc2nonc12 [Compound 6, 4-nitro-N-(3-(trifluoromethyl)phenyl)benzo[c][1,2,5]oxadiazol-5-amine] |  | 460 | Kd (HIF-2α PAS-B; read-out: ITC Kd): 640 nM |
| O=[N+]([O-])c1c(Nc2cccc(Cl)c2F)ccc2nonc12 [Compound 8, N-(3-chloro-2-fluorophenyl)-4-nitrobenzo[c][1,2,5]oxadiazol-5-amine] |  | 760 | Kd (HIF-2α PAS-B; read-out: ITC Kd): 1100 nM |
| O=[N+]([O-])c1c(Nc2cc(F)cc(C(F)(F)F)c2)ccc2nonc12 [Compound 10, N-(3-fluoro-5-(trifluoromethyl)phenyl)-4-nitrobenzo[c][1,2,5]oxadiazol-5-amine] |  | 430 | Kd (HIF-2α PAS-B; read-out: ITC Kd): 370 nM |
| O=[N+]([O-])c1c(Nc2ccc(Cl)c(Cl)c2)ccc2nonc12 [Compound 12, N-(3,4-dichlorophenyl)-4-nitrobenzo[c][1,2,5]oxadiazol-5-amine] |  | 120 | Kd (HIF-2α PAS-B; read-out: ITC Kd): 170 nM |
| O=[N+]([O-])c1c(NCc2ccccc2)ccc2nonc12 [Compound 17] |  | > 5000 |  |
| O=[N+]([O-])c1cc(Nc2ccc3nonc3c2[N+](=O)[O-])ccc1Cl [Compound 32] |  | 200 | Effect on AlphaScreen signal of control reaction (GST-ARNT-PAS-B*-FLAG): No effect; Kd (HIF-2α PAS-B; read-out: ITC Kd): 1100 nM; Effect on HIF-2α/ARNT PAS-B* heterodimerization in AlphaScreen ([1]; triplicate): antagonizes HIF-2α/ARNT PAS-B* heterodimerization |
| O=[N+]([O-])c1c(Nc2cc(F)cc(Cl)c2)ccc2[nH]cnc12 [Compound 35] |  | > 5000 |  |
| Fc1cc(Br)cc([C@@H]2C[C@H](c3cccc(Br)c3)n3nnnc3N2)c1 [Compound 47, (5S,7R)-5-(3-Bromo-5-fluorophenyl)-7-(3-bromophenyl)-4,5,6,7-tetrahydrotetrazolo[1,5-a]pyrimidine] | 83 | 100 | VEGF protein secretion (VEGF): reduce VEGF protein secretion in a dose-dependent manner |
